Source: ChEMBL document CHEMBL5543155, “Design, Synthesis, and Biological Evaluation of β-Trifluoroethoxydimethyl Selenides as Potent Antiosteoporosis Agents” (J Med Chem, 2024)
Activity calls are given as the source filed them. No cut-off for these calls is given here.

Key:
RAW264.7 [1] = experiment: Cytotoxicity against mouse RAW264.7 cells assessed as cell destruction at 5 uM incubated for 48 hrs by MTT assay; format: toxicity, cell-based; conditions: raw264.7, 48 h
RAW264.7 [2] = experiment: Inhibition of RANKL-induced osteoclast differentiation in mouse RAW264.7 cells at 5 uM incubated for 4 days with media replacement for every 2 days by TRAP-staining based light microscopic analysis; format: functional, cell-based; conditions: time 4.0 day

Row | Structure (SMILES) | Activity (RAW264.7 [1]) | inhibition (RAW264.7 [2])
1 | CC(C)(OCC(F)(F)F)C([Se]c1ccccc1)C(=O)Nc1cccc(Cl)c1 (configuration not stated) | Non-Toxic | Active
2 | CC(C)(OCC(F)(F)F)C([Se]c1cccc(F)c1)C(=O)Nc1ccccc1 (configuration not stated) | Non-Toxic | Active
3 | Cc1cnccc1NC(=O)C([Se]c1ccccc1)C(C)(C)OCC(F)(F)F (configuration not stated) | Non-Toxic | –
4 | CC(C)(OCC(F)(F)F)C([Se]c1ccc(Br)cc1)C(=O)Nc1ccccc1 (configuration not stated) | Non-Toxic | Active
5 | CC(C)(OCC(F)(F)F)C([Se]c1ccccc1)C(=O)NC1CCCCC1 (configuration not stated) | Non-Toxic | Active
6 | COc1ccc(NC(=O)C([Se]c2ccccc2)C(C)(C)OCC(F)(F)F)cc1 (configuration not stated) | Non-Toxic | Active
7 | Cc1ccc([Se]C(C(=O)Nc2ccccc2)C(C)(C)OCC(F)(F)F)cc1 (configuration not stated) | Non-Toxic | Active
8 | Cc1cc(NC(=O)C([Se]c2ccccc2)C(C)(C)OCC(F)(F)F)ccn1 (configuration not stated) | Non-Toxic | –
9 | CC(C)(OCC(F)(F)F)C([Se]c1ccccc1)C(=O)Nc1cccc(F)c1 (configuration not stated) | Non-Toxic | Active
10 | COc1ccccc1[Se]C(C(=O)Nc1ccccc1)C(C)(C)OCC(F)(F)F (configuration not stated) | Non-Toxic | Active
11 | CC(C)(OCC(F)(F)F)C([Se]c1ccccc1)C(=O)Nc1ccc(I)cc1 (configuration not stated) | Non-Toxic | Active
12 | COc1cc(NC(=O)C([Se]c2ccccc2)C(C)(C)OCC(F)(F)F)ccn1 (configuration not stated) | Non-Toxic | –
13 | CC(C)(OCC(F)(F)F)C([Se]c1ccccc1)C(=O)Nc1ccnc(Cl)c1 (configuration not stated) | Non-Toxic | –
14 | Cc1cccc([Se]C(C(=O)Nc2ccccc2)C(C)(C)OCC(F)(F)F)c1 (configuration not stated) | Non-Toxic | Active
15 | COc1ccc([Se]C(C(=O)Nc2ccccc2)C(C)(C)OCC(F)(F)F)cc1 (configuration not stated) | Non-Toxic | Active
16 | CCOC(C)(C)C([Se]c1ccccc1)C(=O)Nc1ccccc1 (configuration not stated) | Non-Toxic | –
17 | COc1ccccc1NC(=O)C([Se]c1ccccc1)C(C)(C)OCC(F)(F)F (configuration not stated) | Non-Toxic | Active
18 | CC(C)(OCC(F)(F)F)C([Se]c1ccccc1)C(=O)Nc1ccccn1 (configuration not stated) | Non-Toxic | –
19 | CCCC[Se]C(C(=O)Nc1ccccc1)C(C)(C)OCC(F)(F)F (configuration not stated) | Non-Toxic | Active

Row | Structure (SMILES) | Activity (RAW264.7 [1]) | inhibition (RAW264.7 [2])
20 | CC(C)(OCC(F)(F)F)C([Se]c1ccccc1)C(=O)Nc1ccc(Br)cc1 (configuration not stated) | Non-Toxic | Active
21 | CC(C)(OCC(F)(F)F)C([Se]c1ccc(F)cc1)C(=O)Nc1ccccc1 (configuration not stated) | Non-Toxic | Active
22 | CC(C)(OCC(F)(F)F)C([Se]c1ccccc1)C(=O)Nc1ccccc1F (configuration not stated) | Non-Toxic | –
23 | CC(C)(OCC(F)(F)F)C([Se]c1ccc2c(c1)OCO2)C(=O)Nc1ccccc1 (configuration not stated) | Non-Toxic | Active
24 | CC(C)(OCC(F)(F)F)C([Se]c1ccccc1F)C(=O)Nc1ccccc1 (configuration not stated) | Non-Toxic | Active
25 | CC(C)(OCC(F)(F)F)C([Se]c1ccccc1)C(=O)Nc1ccnc(F)c1 (configuration not stated) | Non-Toxic | –
26 | CC(C)(OCC(F)(F)F)C([Se]c1ccc(F)cc1)C(=O)Nc1ccncc1 (configuration not stated) | Non-Toxic | –
27 | COc1ccc([Se]C(C(=O)Nc2ccncc2)C(C)(C)OCC(F)(F)F)cc1 (configuration not stated) | Non-Toxic | –
28 | CC(C)(OCC(F)(F)F)C([Se]c1ccccc1)C(=O)Nc1cnc2ccccc2c1 (configuration not stated) | Non-Toxic | Active
29 | CC(C)(OCC(F)(F)F)C([Se]c1ccccc1Cl)C(=O)Nc1ccccc1 (configuration not stated) | Non-Toxic | Active
30 | Cc1ccccc1[Se]C(C(=O)Nc1ccccc1)C(C)(C)OCC(F)(F)F (configuration not stated) | Non-Toxic | –
31 | CC(C)(OCC(F)(F)F)C([Se]c1cccc(Br)c1)C(=O)Nc1ccccc1 (configuration not stated) | Non-Toxic | Active
32 | CC(C)(OCC(F)(F)F)C([Se]c1ccccc1)C(=O)Nc1ccccc1 (configuration not stated) | Non-Toxic | –
33 | CC(C)(OCC(F)(F)F)C([Se]c1ccccc1)C(=O)Nc1cccnc1 (configuration not stated) | Non-Toxic | –
34 | Cc1ccccc1NC(=O)C([Se]c1ccccc1)C(C)(C)OCC(F)(F)F (configuration not stated) | Non-Toxic | Active
35 | Cc1cc(Cl)ccc1NC(=O)C([Se]c1ccccc1)C(C)(C)OCC(F)(F)F (configuration not stated) | Non-Toxic | Active
36 | COc1ncccc1[Se]C(C(=O)Nc1ccccc1)C(C)(C)OCC(F)(F)F (configuration not stated) | Non-Toxic | Active
37 | CC(C)(OCC(F)(F)F)C([Se]c1ccccc1Br)C(=O)Nc1ccccc1 (configuration not stated) | Non-Toxic | Active
38 | CC(C)(OCC(F)(F)F)C([Se]c1ccccc1)C(=O)Nc1ccnc(Br)c1 (configuration not stated) | Non-Toxic | –
